Reference: US12509431B2, “1,4-dihydroquinazolinone compounds and uses thereof” (Edgewise Therapeutics, Inc., priority 2022, dated 2025)

Experiments:
Format in all cases: biochemical
Settings in all cases: Table 7
[1] = biological target: T1, Porcine Ventricle myofibrils (left ventricle of Yucatan minipigs) (Sus scrofa, UniProt P79293); assay: Myofibril ATPase assay (PK/LDH NADH-coupled), ventricle myofibrils
T1 construct: Myofibrils from porcine cardiac muscle was isolated from the left ventricle of Yucatan minipigs; tissue Exemplar Genetics; host or cells: left ventricle of Yucatan minipigs
T1 sequence (P79293 whole entry): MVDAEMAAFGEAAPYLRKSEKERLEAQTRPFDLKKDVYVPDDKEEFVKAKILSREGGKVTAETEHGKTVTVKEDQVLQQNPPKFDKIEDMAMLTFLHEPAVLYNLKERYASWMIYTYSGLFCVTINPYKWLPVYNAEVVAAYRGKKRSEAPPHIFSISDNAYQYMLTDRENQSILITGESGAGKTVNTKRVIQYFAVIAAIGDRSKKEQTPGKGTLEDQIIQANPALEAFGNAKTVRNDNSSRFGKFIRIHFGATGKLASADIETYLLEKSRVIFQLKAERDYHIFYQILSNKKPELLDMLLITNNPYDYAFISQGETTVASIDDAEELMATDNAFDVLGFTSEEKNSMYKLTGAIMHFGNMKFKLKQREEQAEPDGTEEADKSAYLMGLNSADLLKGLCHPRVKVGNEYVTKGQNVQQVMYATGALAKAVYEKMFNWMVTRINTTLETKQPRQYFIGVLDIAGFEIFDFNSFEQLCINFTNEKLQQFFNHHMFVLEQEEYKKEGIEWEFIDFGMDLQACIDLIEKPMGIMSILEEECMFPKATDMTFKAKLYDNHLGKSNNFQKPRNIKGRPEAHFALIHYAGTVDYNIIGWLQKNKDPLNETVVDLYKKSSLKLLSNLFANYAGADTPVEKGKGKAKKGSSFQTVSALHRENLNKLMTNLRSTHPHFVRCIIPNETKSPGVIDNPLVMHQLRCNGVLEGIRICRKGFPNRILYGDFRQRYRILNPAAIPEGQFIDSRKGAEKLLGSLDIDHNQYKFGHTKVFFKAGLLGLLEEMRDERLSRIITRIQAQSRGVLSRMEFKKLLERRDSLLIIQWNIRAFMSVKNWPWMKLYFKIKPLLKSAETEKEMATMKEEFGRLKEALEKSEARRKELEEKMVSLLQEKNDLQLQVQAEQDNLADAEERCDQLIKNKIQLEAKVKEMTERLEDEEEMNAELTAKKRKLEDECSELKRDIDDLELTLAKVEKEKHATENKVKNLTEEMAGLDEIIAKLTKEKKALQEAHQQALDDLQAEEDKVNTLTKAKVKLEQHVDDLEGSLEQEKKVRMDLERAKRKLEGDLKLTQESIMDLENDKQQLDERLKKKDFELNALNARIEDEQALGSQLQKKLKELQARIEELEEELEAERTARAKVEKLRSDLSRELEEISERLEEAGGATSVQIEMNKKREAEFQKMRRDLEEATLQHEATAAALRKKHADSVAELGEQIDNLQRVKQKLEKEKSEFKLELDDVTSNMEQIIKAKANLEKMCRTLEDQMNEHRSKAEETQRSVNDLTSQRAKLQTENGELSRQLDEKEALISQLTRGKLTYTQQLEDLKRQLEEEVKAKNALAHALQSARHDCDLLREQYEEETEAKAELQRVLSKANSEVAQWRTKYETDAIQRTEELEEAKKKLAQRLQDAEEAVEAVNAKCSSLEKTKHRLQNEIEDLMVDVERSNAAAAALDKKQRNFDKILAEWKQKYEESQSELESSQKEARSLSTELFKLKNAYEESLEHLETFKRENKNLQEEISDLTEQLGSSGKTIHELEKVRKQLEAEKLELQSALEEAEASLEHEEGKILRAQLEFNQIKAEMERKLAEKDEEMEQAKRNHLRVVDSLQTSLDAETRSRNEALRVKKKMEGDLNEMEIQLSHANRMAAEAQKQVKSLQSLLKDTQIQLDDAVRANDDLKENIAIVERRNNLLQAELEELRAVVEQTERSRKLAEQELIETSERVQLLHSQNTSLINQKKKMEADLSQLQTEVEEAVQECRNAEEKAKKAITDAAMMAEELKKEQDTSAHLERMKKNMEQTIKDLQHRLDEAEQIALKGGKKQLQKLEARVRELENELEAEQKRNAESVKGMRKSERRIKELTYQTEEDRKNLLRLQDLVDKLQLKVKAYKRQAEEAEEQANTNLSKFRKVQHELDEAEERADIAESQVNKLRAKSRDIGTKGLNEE
How it was run: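 Yucatan minipig left-ventricle myofibrils; ATPase measured by PK/LDH-coupled NADH loss at 340 nm, read every 1.5-2 min for 75 min. Slopes normalized to vehicle (100%) and fit to 4-parameter logistic model; EC25 and, for inhibitors, EC50 calculated.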

[2] = system: Rabbit Skeletal myofibrils (rabbit psoas muscle); assay: Myofibril ATPase assay (PK/LDH NADH-coupled), skeletal myofibrils
How it was run: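 Rabbit psoas myofibrils in pCa (PIPES/CaCl2/EGTA, pH 7.0) buffer; ADP coupled via PK/LDH to NADH loss, read at 340 nm every 1.5–2 min for 75 min. Slopes normalized to vehicle (100%) and fit to 4-parameter logistic for EC25, plus EC50 for inhibitors.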

Porcine Atria myofibrils = assay: Myofibril ATPase assay (PK/LDH NADH-coupled), atria myofibrils
How it was run: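 Porcine atrial myofibril ATPase followed via PK/LDH-coupled NADH depletion, absorbance at 340 nm read every 1.5-2 min over 75 min. Slopes (mAU/min) normalized to vehicle as 100% and fit to a 4-parameter logistic; EC25% derived, plus EC50% for inhibitors.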

SMILES	Porcine Ventricle IC25 [1]	Rabbit Psoas IC25 [2]	Porcine Atria IC25 (Porcine Atria myofibrils)
CC(C)C[C@H](C(=O)N[C@@H](C)c1ccc(F)cc1F)N1Cc2nc(F)ccc2NC1=O [Compound N90]	100 µM	49.64 µM	100.00 µM
Cc1ncc2c(n1)CN(CC(=O)N[C@@H](C)c1ccc(F)cc1F)C(=O)N2 [Compound N91]	100 µM	17.09 µM	56.88 µM
C[C@H](NC(=O)[C@H](C)N1Cc2nc(F)ccc2NC1=O)c1ccccc1F [Compound N92]	100 µM	100 µM	100.00 µM
C[C@H](NC(=O)[C@@H](C)N1Cc2nc(F)ccc2NC1=O)c1ccccc1F [Compound N93]	100 µM	100 µM	1.66 µM
C[C@H](NC(=O)[C@H](C)N1Cc2c(ccnc2Br)NC1=O)c1ccc(F)cc1F [Compound N94]	0.4952 µM	0.0739 µM	0.22 µM
C[C@H](NC(=O)[C@@H](C)N1Cc2c(ccnc2Br)NC1=O)c1ccc(F)cc1F [Compound N95]	5.968 µM	0.9565 µM	3.69 µM
C[C@H](NC(=O)[C@H](Cc1ccccc1)N1Cc2nc(F)ccc2NC1=O)c1ccc(F)cc1F [Compound N96]	100 µM	100 µM	100.00 µM
C[C@H](NC(=O)[C@@H](Cc1ccccc1)N1Cc2nc(F)ccc2NC1=O)c1ccc(F)cc1F [Compound N97]	100 µM	90.25 µM	100.00 µM
C[C@H](NC(=O)[C@H](C)N1Cc2nc(F)ccc2NC1=O)c1ccc(F)cc1 [Compound N98]	71.64 µM	8.57 µM	0.36 µM
C[C@H](NC(=O)[C@@H](C)N1Cc2nc(F)ccc2NC1=O)c1ccc(F)cc1 [Compound N99]	100 µM	100 µM	8.28 µM
O=C(CN1Cc2c(ccnc2Cl)NC1=O)N[C@@H](c1ccc(F)cc1F)C(F)(F)F [Compound N100]	100 µM	9.48 µM	100.00 µM
O=C(CN1Cc2c(ccnc2Cl)NC1=O)N[C@H](c1ccc(F)cc1F)C(F)(F)F [Compound N101]	1.94 µM	0.1554 µM	0.27 µM
C[C@H](NC(=O)CN1Cc2nc(Br)ccc2NC1=O)c1ccc(F)cc1F [Compound N103]	9.96 µM	1.03 µM	0.16 µM
C[C@@H](NC(=O)CN1Cc2nc(F)ccc2NC1=O)c1ncc(F)cc1F [Compound N104, N-[(1R)-1-(3,5-Difluoropyridin-2-yl)ethyl]-2-[6-fluoro-2-oxo-1H,4H-pyrido[3,2-d]pyrimidin-3-yl]acetamide]	4.155 µM	0.1699 µM	0.16 µM
C[C@H](NC(=O)CN1Cc2nc(F)ccc2NC1=O)c1ncc(F)cc1F [Compound N105]	100 µM	30.96 µM	100.00 µM
COc1ccc2c(n1)CN([C@H](C)C(=O)N[C@@H](C)c1ccc(F)cc1F)C(=O)N2 [Compound N106]	100 µM	3.732 µM	2.58 µM
COc1ccc2c(n1)CN([C@@H](C)C(=O)N[C@@H](C)c1ccc(F)cc1F)C(=O)N2 [Compound N107]	100 µM	100 µM	100.00 µM
C[C@H](NC(=O)[C@H](C)N1Cc2c(ccnc2C(F)(F)F)NC1=O)c1ccc(F)cc1F [Compound N108]	49.28 µM	0.0727 µM	1.41 µM
C[C@H](NC(=O)CN1Cc2nc(OC(F)(F)F)ccc2NC1=O)c1ccc(F)cc1F [Compound N109]	100 µM	0.4553 µM	5.44 µM
CC(C(=O)N[C@@H](C)c1ccc(F)cc1F)N1Cc2nc(F)ccc2NC1=O (stereo partly drawn) [Compound N110]	19.54 µM	0.1674 µM	0.19 µM

SMILES	Porcine Ventricle IC25 [1]	Rabbit Psoas IC25 [2]	Porcine Atria IC25 (Porcine Atria myofibrils)
C[C@H](NC(=O)[C@@H](C)N1Cc2nc(F)ccc2NC1=O)c1ccc(F)cc1F [Compound N111]	6.67 µM	0.1027 µM	0.08 µM
C[C@H](NC(=O)CN1Cc2nc(C(F)(F)F)ccc2NC1=O)c1ccc(F)cc1F [Compound N112, N-[(1S)-1-(2,4-Difluorophenyl)ethyl]-2-[2-oxo-6-(trifluoromethyl)-1H,4H-pyrido[3,2-d]pyrimidin-3-yl]acetamide]	9.823 µM	0.2968 µM	0.23 µM
C[C@H](NC(=O)CN1Cc2nc(OC3CC3)ccc2NC1=O)c1ccc(F)cc1F [Compound N113]	73.85 µM	0.3281 µM	22.12 µM
C[C@H](NC(=O)[C@H](C)N1Cc2c(ccnc2Cl)NC1=O)c1ccc(F)cc1F [Compound N114]	8.373 µM	0.2892 µM	2.30 µM
C[C@H](NC(=O)[C@@H](C)N1Cc2c(ccnc2Cl)NC1=O)c1ccc(F)cc1F [Compound N115]	0.7516 µM	0.0228 µM	0.51 µM
C[C@H](NC(=O)CN1Cc2c(ccnc2OC2CC2)NC1=O)c1ccc(F)cc1F [Compound N116]	40.22 µM	0.1914 µM	4.38 µM
C[C@H](NC(=O)CN1Cc2nc(Cl)ccc2NC1=O)c1ccc(F)cc1F [Compound N117, 2-{6-Chloro-2-oxo-1H,4H-pyrido[3,2-d]pyrimidin-3-yl}-N-[(1S)-1-(2,4-difluorophenyl)ethyl]acetamide]	0.3795 µM	0.0146 µM	0.17 µM
CCOc1ccc2c(n1)CN(CC(=O)N[C@@H](C)c1ccc(F)cc1F)C(=O)N2 [Compound N118]	5.896 µM	0.152 µM	0.75 µM
COc1ccc2c(n1)CN(CC(=O)N[C@@H](C)c1ccc(F)cc1F)C(=O)N2 [Compound N119]	3.289 µM	0.1196 µM	0.57 µM
CC(C)Oc1nccc2c1CN(CC(=O)N[C@@H](C)c1ccc(F)cc1F)C(=O)N2 [Compound N120]	27.23 µM	0.4239 µM	100.00 µM
CCOc1nccc2c1CN(CC(=O)N[C@@H](C)c1ccc(F)cc1F)C(=O)N2 [Compound N121]	5.985 µM	0.0218 µM	0.51 µM
C[C@H](NC(=O)CN1Cc2c(ccnc2OCC(F)F)NC1=O)c1ccc(F)cc1F [Compound N122]	11.42 µM	0.0567 µM	0.36 µM
C[C@H](NC(=O)CN1Cc2nc(F)ccc2NC1=O)c1ccc(F)cc1F [Compound N123]	0.8592 µM	0.03514 µM	0.07 µM
C[C@H](NC(=O)CN1Cc2c(ccnc2F)NC1=O)c1ccc(F)cc1F [Compound N124]	0.2452 µM	0.0503 µM	0.08 µM
COc1nccc2c1CN(CC(=O)N[C@@H](C)c1ccc(F)cc1F)C(=O)N2 [Compound N125, N-[(1S)-1-(2,4-Difluorophenyl)ethyl]-2-{5-methoxy-2-oxo-1H,4H-pyrido[4,3-d]pyrimidin-3-yl}acetamide]	2.663 µM	0.0423 µM	0.68 µM
C[C@H](NC(=O)CN1Cc2c(ccnc2C(F)(F)F)NC1=O)c1ccc(F)cc1F [Compound N126]	4.027 µM	0.07562 µM	0.60 µM
C[C@H](NC(=O)CN1Cc2c(ccnc2C2CC2)NC1=O)c1ccc(F)cc1F [Compound N127, 2-[5-Cyclopropyl-2-oxo-1H,4H-pyrido[4,3-d]pyrimidin-3-yl]-N-[(1S)-1-(2,4-difluorophenyl)ethyl]acetamide]	73.05 µM	0.2931 µM	3.12 µM
C[C@H](NC(=O)CN1Cc2c(ccnc2Cl)NC1=O)c1ccc(F)cc1F [Compound N128, 2-{5-Chloro-2-oxo-1H,4H-pyrido[4,3-d]pyrimidin-3-yl}-N-[(1S)-1-(2,4-difluorophenyl)ethyl]acetamide]	0.2533 µM	0.0418 µM	0.08 µM
Cc1nccc2c1CN(CC(=O)N[C@@H](C)c1ccc(F)cc1F)C(=O)N2 [Compound N129, N-[(1S)-1-(2,4-Difluorophenyl)ethyl]-2-{5-methyl-2-oxo-1H,4H-pyrido[4,3-d]pyrimidin-3-yl}acetamide]	4.847 µM	0.559 µM	4.20 µM
